Results: BindingDB's records for doi:10.1016/S0960-894X(96)00247-8 (1996)

Columns and labels:
[1] = molecular target: Glutamate-cysteine ligase gshA (Escherichia coli) (UniProt P0A6W9); assay: Tested for inhibition of Escherichia coli gamma-glutamylcysteine synthetase at a concentration of 5.1 uM
[2] = molecular target: Glutamate-cysteine ligase gshA (Escherichia coli) (UniProt P0A6W9); assay: Tested for inhibition of Escherichia coli gamma-glutamylcysteine synthetase at a concentration of 5.7 uM

Chain of Glutamate-cysteine ligase gshA (Escherichia coli) (P0A6W9 whole entry, looked up): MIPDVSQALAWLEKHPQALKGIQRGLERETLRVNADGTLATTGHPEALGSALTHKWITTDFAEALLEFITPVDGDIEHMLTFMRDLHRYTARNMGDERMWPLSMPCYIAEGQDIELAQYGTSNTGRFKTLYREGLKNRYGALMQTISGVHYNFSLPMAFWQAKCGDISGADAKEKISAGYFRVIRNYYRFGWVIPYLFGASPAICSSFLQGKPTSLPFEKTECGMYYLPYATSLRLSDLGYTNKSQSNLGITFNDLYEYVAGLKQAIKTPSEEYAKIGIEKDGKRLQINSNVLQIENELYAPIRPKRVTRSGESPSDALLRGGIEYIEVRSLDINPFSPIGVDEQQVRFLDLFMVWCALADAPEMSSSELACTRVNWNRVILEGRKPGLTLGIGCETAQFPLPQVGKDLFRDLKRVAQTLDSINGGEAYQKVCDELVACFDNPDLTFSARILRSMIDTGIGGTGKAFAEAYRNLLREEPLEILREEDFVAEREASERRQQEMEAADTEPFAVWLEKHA

Ki [1] [µM] | Ki [2] [µM] | Structure (SMILES)
49.3 |  | CCCCS(=N)(=O)CCC(=N)C(=O)O (configuration not stated)
 | 4.95 | CCC(CP(=O)(O)CC[C@H](N)C(=O)O)C(=O)O (stereo partly drawn) [(2S)-2-ammonio-4-[(2-carboxylatobutyl)phosphinato]butanoate]
